Where two headings read alike, the source gives them in different places. Where a SMILES comes first, the peptide text is derived from it. [ ]: non-standard residue; d: D form. The star is where a group is joined. X4 = CC1=C(C*)C2=C(C)C3(CC3)[C@@](C)(O)C(=O)C2=C1
Tests used:
Test in all cases: cells
[1] = test system: MV522 Target Cell Line (lung-derived adenocarcinoma); details: MV522, 48 h, read-out: Mean IC50 value
[2] = test system: 8392B Nontarget Cell Line (hematopoietic); details: 2 h
[3] = test system: 8392B Nontarget Cell Line (hematopoietic); details: 48 h, read-out: Mean IC50 value
[4] = test system: MV522 Target Cell Line (lung-derived adenocarcinoma); details: MV522, 2 h, read-out: Mean IC50 value
[5] = read-out: Mean IC50 value, 8392B Nontarget Cell Line, 2 hr exposure, ± SD, N = 3 unless otherwise indicated

SMILES	IC50 [1] [µM]	IC50 [2, 5] [µM]	IC50 [3] [µM]	IC50 [4] [µM]	IC50 ([2]; read-out: Mean IC50 value) [µM]
CC1=C(Br)C2=C(C)C3(CC3)[C@@](C)(O)C(=O)C2=C1 [Analog 004]	0.6	–	–	–	–
CC1=C(CCCO)C2=C(C)C3(CC3)[C@@](C)(O)C(=O)C2=C1 [Analog 009]	–	47.1 ± 11	43.2 ± 2.3	–	–
CC1=C(CCC=O)C2=C(C)C3(CC3)[C@@](C)(O)C(=O)C2=C1 [Analog 010]	–	29.4 ± 1.6	14.5 ± 1.7	–	–
CC1=C(C=O)C2=C(C)C3(CC3)[C@@](C)(O)C(=O)C2=C1 [Analog 011]	–	> 100	40.4 ± 6.7	4.9 ± 0.9	–
CC1=C(CC2CC(C=O)CC(C=O)C2O)C2=C(C)C3(CC3)[C@@](C)(O)C(=O)C2=C1 (stereo partly drawn) [Analog 013]	–	–	–	5.1 ± 0.7	–
CC1=C2C(=C[C@@]3(C)COCO[C@@H]23)C(=O)[C@](C)(O)C12CC2 [Analog 014]	–	9.65 ± 0.2	–	0.115 ± 0.03	–
CC(=O)O[C@@]1(C)C(=O)C2=CC(C)=C(CO)C2=C(C)C12CC2 [Analog 015]	0.48 ± 0.11	0.81 ± 0.26	–	–	–
CCOCC1=C(C)C=C2C(=O)[C@](C)(O)C3(CC3)C(C)=C21 [Analog 016]	–	> 100	0.87 ± 0.06	0.49 ± 0.13	–
CC1=C(COCC2=C(C)C=C3C(=O)[C@](C)(O)C4(CC4)C(C)=C32)C2=C(C)C3(CC3)[C@@](C)(O)C(=O)C2=C1 [Analog 017]	0.32 ± 0.06	14.7 ± 0.9	–	–	–
CC1=C(CO[C@@H]2O[C@@H](CO)[C@H](O)[C@@H](O)[C@@H]2O)C2=C(C)C3(CC3)[C@@](C)(O)C(=O)C2=C1 [Analog 018]	–	–	–	8.8 ± 2.9	–
CC1=C(COCC(O)CO)C2=C(C)C3(CC3)[C@@](C)(O)C(=O)C2=C1 (stereo partly drawn) [Analog 019]	0.66 ± 0.08	> 75	–	0.47 ± 0.06	–
COC(C)(C)OCC1=C(C)C=C2C(=O)[C@](C)(O)C3(CC3)C(C)=C21 [Analog 021]	0.93 ± 0.25	34.4 ± 9.4	–	–	–
CC1=C(COCCO)C2=C(C)C3(CC3)[C@@](C)(O)C(=O)C2=C1 [Analog 022]	–	31.7 ± 1.4	–	–	–
CC1=C(CSc2ccc(O)cc2)C2=C(C)C3(CC3)[C@@](C)(O)C(=O)C2=C1 [Analog 023]	2.75 ± 0.5	> 138	–	2.9 ± 1.14	–
CC1=C(CSCc2ccccc2)C2=C(C)C3(CC3)[C@@](C)(O)C(=O)C2=C1 [Analog 024]	–	12.8 ± 2.1	–	–	–
COC(=O)CSCC1=C(C)C=C2C(=O)[C@](C)(O)C3(CC3)C(C)=C21 [Analog 025]	–	> 25	–	–	–
COC(=O)CSCC1=C(C)C(SCC(=O)OC)=C2C(=O)[C@](C)(O)C3(CC3)C(C)=C12 [Analog 030]	> 3	–	–	–	–
COC(=O)CSCC1=C(C)C(SCC(=O)OC)C2(O)C(=O)[C@](C)(O)C3(CC3)C(C)=C12 (stereo partly drawn) [Analog 031]	> 3	–	–	–	–
CC1=C(CSCC(O)CO)C2=C(C)C3(CC3)[C@@](C)(O)C(=O)C2=C1 (stereo partly drawn) [Analog 032]	–	> 30	–	0.6 ± 0.19	–
CC1=C2C=CC=C2C(=O)C2(OCCO2)C12CC2 [Analog 033]	4.6 ± 0.2	29.9 ± 3.3	–	–	–
CC(=O)OCC1=C(C)C=C2C(=O)[C@](C)(O)C3(CC3)C(C)=C21 [Analog 034]	0.49 ± 0.04	> 100	–	–	–

SMILES	IC50 [1] [µM]	IC50 [2, 5] [µM]	IC50 [3] [µM]	IC50 [4] [µM]	IC50 ([2]; read-out: Mean IC50 value) [µM]
CC1=C2C=CC=C2C(=O)C(O)C12CC2 (stereo not drawn) [Analog 035]	–	> 150	–	5.6 ± 0.6	–
CC1=C(CSCC(N)C(=O)O)C2=C(C)C3(CC3)[C@@](C)(O)C(=O)C2=C1 (stereo partly drawn) [Analog 037]	29.2 ± 2.3	> 85	–	–	–
CC1=C(CCC(=O)O)C2=C(C)C3(CC3)[C@@](C)(O)C(=O)C2=C1 [Analog 038]	–	24.9 ± 8	–	0.75 ± 0.06	–
COC(CCC1=C(C)C=C2C(=O)[C@](C)(O)C3(CC3)C(C)=C21)OC [Analog 039]	0.6 ± 0.04	24.6 ± 2.4	–	–	–
CCOC(CCC1=C(C)C=C2C(=O)[C@](C)(O)C3(CC3)C(C)=C21)OCC [Analog 040]	–	–	5.2 ± 0.47	–	–
CC1=C2C=CC=C2[C@@H](O)C2(OCCO2)C12CC2 [Analog 060]	–	–	–	19.4 ± 1.8	27.6 ± 3
CC1=C2C=C(CO)C=C2C(=O)[C@](C)(O)C12CC2 [Analog 062]	0.66 ± 0.2	37.1 ± 2.3	–	–	–
CC1=C2C(=CC(CO)=C2CO)C(=O)[C@](C)(O)C12CC2 [Analog 063]	0.58 ± 0.25	–	–	–	–
CC(=O)N[C@@H](CSCC1=CC=C2C(=O)[C@](C)(O)C3(CC3)C(C)=C12)C(=O)N[C@@H](C)c1ccccc1 [Analog 065]	–	–	–	6.2 ± 1.1	–
CC(=O)OCC1=CC2=C(C)C3(CC3)[C@@](C)(O)C(=O)C2=C1 [Analog 075]	–	62 ± 3.6	–	19.6 ± 9.7	–
CC(=O)OCC1=C(COC(C)=O)C2=C(C)C3(CC3)[C@@](C)(O)C(=O)C2=C1 [Analog 076]	–	39.5 ± 7.2	–	–	–
CC(=O)OCC1=C(CO)C2=C(C)C3(CC3)[C@@](C)(O)C(=O)C2=C1 [Analog 077]	–	–	–	9.2 ± 1.2	–
CC(=O)OCC1=C(CO)C=C2C(=O)[C@](C)(O)C3(CC3)C(C)=C21 [Analog 078]	–	> 100	–	20.4 ± 6.3	–
COCC1=CC2=C(C)C3(CC3)[C@@](C)(O)C(=O)C2=C1 [Analog 079]	–	> 100	–	–	–
COCC1=C(C)C=C2C(=O)[C@](C)(O)C3(CC3)C(C)=C21 [Analog 080]	–	> 100	–	8.8 ± 2.4	–
COCC1=C(CO)C=C2C(=O)[C@](C)(O)C3(CC3)C(C)=C21 [Analog 081]	–	> 80	–	> 80	–
COCC1=C(COC)C2=C(C)C3(CC3)[C@@](C)(O)C(=O)C2=C1 [Analog 082]	–	> 100	–	50.6 ± 7.1	–
CC(=O)N[C@@H](CSCC1=C(C)C=C2C(=O)[C@](C)(O)C3(CC3)C(C)=C21)C(=O)N[C@@H](CC(C)C)C(=O)N[C@@H](CC(C)C)C(=O)N[C@@H](C=O)Cc1ccccc1 [Analog 085] (Ac-C(X4)LL[dF]-aldehyde)	> 40	–	–	> 40	–
CC(=O)N[C@@H](CSCC1=C(C)C=C2C(=O)[C@](C)(O)C3(CC3)C(C)=C21)C(=O)N[C@@H](CC(C)C)C(=O)N[C@H](CC(C)C)C(=O)N[C@H](C=O)CC(C)C [Analog 087] (Ac-C(X4)L[dL]L-aldehyde)	24.7 ± 3.9	> 40	–	> 40	–
CC1=C(CSC[C@H](NC(=O)CC[C@@H](N)C(=O)O)C(=O)NCC(=O)O)C2=C(C)C3(CC3)[C@@](C)(O)C(=O)C2=C1 [Analog 089]	15.5 ± 2.8	> 60	–	19.3 ± 5.7	–
CC(=O)OCCCC1=C(C)C=C2C(=O)[C@](C)(O)C3(CC3)C(C)=C21 [Analog 094]	–	9 ± 1.7	0.11 ± 0.01	0.8 ± 0.1	–

SMILES	IC50 [1] [µM]	IC50 [2, 5] [µM]	IC50 [3] [µM]	IC50 [4] [µM]	IC50 ([2]; read-out: Mean IC50 value) [µM]
CC1=C(CSCC[C@H](N)C(=O)O)C2=C(C)C3(CC3)[C@@](C)(O)C(=O)C2=C1 [Analog 097]	–	> 82	–	–	–
CC1=C2C(=O)[C@](C)(CO)C=C2C(=O)[C@](C)(O)C12CC2 [Analog 099]	–	4 ± 0.4	–	8.4 ± 1.1	–
CC1=C(CSC[C@H](N)C(=O)N[C@@H](CC(N)=O)C(=O)NCC(=O)N[C@@H](CCCNC(=N)N)C(=O)N[C@@H](CS)C(=O)O)C2=C(C)C3(CC3)[C@@](C)(O)C(=O)C2=C1 [Analog 102] (H-C(X4)NGRC-OH)	–	–	–	> 13	–
CC(=O)OCC1=C(CO)C=C2C(=O)[C@](C)(OC(C)=O)C3(CC3)C(C)=C21 [Analog 103]	5.9 ± 0.4	12.1 ± 2	–	31.8 ± 4.9	–
CC1=C2C(=CC3=C2COCOC3)C(=O)[C@](C)(O)C12CC2 [Analog 104]	–	36.4 ± 6.5	–	–	–
C/C(C=O)=C1\[C@@H](O)C[C@]1(C)[C@H]1CC(C)(C)C[C@@H]1O [Analog 105]	2.1 ± 0.4	–	–	7.3 ± 1.2	> 100
CC1=C2C(=CC(C)(C)[C@@H]2OC(=O)CCCC(=O)O)C(=O)[C@](C)(O)C12CC2 [Analog 106]	–	> 83	–	5.2 ± 1	–
CC1=C2C(=CC(C)(C)[C@@H]2OC(=O)CCCC(=O)Oc2ccc3c(c2)CCC2C3CC[C@]3(C)C(=O)CCC23)C(=O)[C@](C)(O)C12CC2 (stereo partly drawn) [Analog 107]	–	–	–	> 50	> 50
CC1=C2C(=CC(C)(C)[C@@H]2OC(=O)CCCC(=O)Oc2ccc3c(c2)CCC2C3CC[C@]3(C)C(O)CCC23)C(=O)[C@](C)(O)C12CC2 (stereo partly drawn) [Analog 109]	–	–	–	> 50	> 50
CC1=C(CCC(=O)OC2CCC3(C)C(CCC4C3CC[C@]3(C)C(=O)CCC43)C2)C2=C(C)C3(CC3)[C@@](C)(O)C(=O)C2=C1 (stereo partly drawn) [Analog 112]	–	14.9 ± 0.1	5.2 ± 0.3	–	–
CC1=C(CCC=NO)C2=C(C)C3(CC3)[C@@](C)(O)C(=O)C2=C1 [Analog 115]	–	–	0.63 ± 0.06	–	–
CC1=C(COC(C)(C)C)C2=C(C)C3(CC3)[C@@](C)(O)C(=O)C2=C1 [Analog 116]	–	7 ± 0.4	–	0.4 ± 0.1	–
CC1=C2C(=C[C@@](C)(COC(=O)CCCC(=O)O)C2OC(=O)CCCC(=O)O)C(=O)[C@](C)(O)C12CC2 (stereo partly drawn) [Analog 117]	–	–	0.01 ± 0.002	–	–
CC1=C2C(=C[C@@](C)(COC(=O)c3cc([N+](=O)[O-])cc([N+](=O)[O-])c3)C2OC(=O)CCCC(=O)O)C(=O)[C@](C)(O)C12CC2 (stereo partly drawn) [Analog 118]	–	24.5 ± 4.5	–	–	–
CC1=C(CCC(O)CO)C2=C(C)C3(CC3)[C@@](C)(O)C(=O)C2=C1 (stereo partly drawn) [Analog 119]	–	> 33	> 10	–	–
CC1=C(CCC=NNC(N)=O)C2=C(C)C3(CC3)[C@@](C)(O)C(=O)C2=C1 [Analog 121]	–	15.2 ± 6	–	–	–
CC1=C(CCC=NNc2ccccc2)C2=C(C)C3(CC3)[C@@](C)(O)C(=O)C2=C1 [Analog 122]	–	14.5 ± 1.2	–	–	–
CC1=C(CCC=NNS(=O)(=O)c2ccc(C)cc2)C2=C(C)C3(CC3)[C@@](C)(O)C(=O)C2=C1 [Analog 123]	0.6 ± 0.06	–	–	–	–
CC(=O)ON=CCCC1=C(C)C=C2C(=O)[C@](C)(O)C3(CC3)C(C)=C21 [Analog 124]	0.87 ± 0.35	> 30	–	–	–
CC1=C(C=NO)C2=C(C)C3(CC3)[C@@](C)(O)C(=O)C2=C1 [Analog 126]	–	> 30	–	–	–
CC1=C(CCC(O)C#N)C2=C(C)C3(CC3)[C@@](C)(O)C(=O)C2=C1 (stereo partly drawn) [Analog 127]	–	> 30	–	0.87 ± 0.03	–
